Measurements published in patent US8987302B2, “Treatment of hepatitis C virus related diseases using hydroxychloroquine or a combination of hydroxychloroquine and an anti-viral agent” (Panmed Ltd., priority 2010, dated 2015).

How the values were obtained:
HCV genotype 1b replicon = assay: HCV RNA replication in Huh7 replicon cells (RT-PCR), single drugs and combinations; type: cell-based, hepatitis C virus; conditions: alone, 72 hours
NiV = conditions: hamster, in vivo; cited from earlier work
HeV = conditions: hamster, in vivo; cited from earlier work
[1] = system: JFH1/CsN6A4 infected Huh7 cells; assay: Microarray gene expression in JFH1/CsN6A4 infected Huh7 cells; conditions: for Number of genes modulated by both HCQ and CQ, Down-regulated / Number of genes modulated by both HCQ and CQ, Up-regulated: 40 μM; for Number of genes modulated by both HCQ and CQ, Down-regulated: FC≦0.5; for Number of genes modulated by both HCQ and CQ, Up-regulated: FC≧2; for number of the 118 HCV modulated genes down-regulated (FC≦0.5) by both compounds / number of the 118 HCV modulated genes up-regulated (FC≧2) by both compounds / expression of genes involved in the IFN signaling: 48 hours treatment; for expression of genes involved in the IFN signaling: IFN 100IU
[2] = system: Huh7 harboring replicon cells; assay: Microarray gene expression in Huh7 harboring replicon cells; type: cell-based, Human; conditions: 10 μM
Huh 5-2 cells = conditions: 6.6 μM; cited from earlier work
[3] = system: HCV replicon-Huh-7/neo cells; assay: Replication levels of HCV replicon by NPTII quantification; conditions: 0.5, 1 or 10 μM, 72 hours
replicon cells = assay: Cytotoxicity, MTS assay of replicon cells; conditions: tested doses, 72 hours
[4] = after either 12 hours or 48 hours of treatment
[5] = cut-off at 12 hours and 24 hours
[6] = 48 h of antiviral treatment, vs untreated infected cells

## CCN(CC)CCCC(C)Nc1ccnc2cc(Cl)ccc12 (stereo not drawn) [CQ, chloroquine]
HCV genotype 1b replicon
  HCV RNA replication: inhibited HCV RNA replication
NiV
  protection of hamsters: did not protect hamsters
HeV
  protection of hamsters: did not protect hamsters
[1]; 12 h
  Number of genes modulated by both HCQ and CQ, Down-regulated: 9
  Number of genes modulated by both HCQ and CQ, Up-regulated: 38
[1]; 48 h
  Number of genes modulated by both HCQ and CQ, Down-regulated: 262
  Number of genes modulated by both HCQ and CQ, Up-regulated: 24
  Number of genes Induced by JFH1 infection and Down-regulated by treatment: 104
  Number of genes Induced by JFH1 infection and Up-regulated by treatment: 1
  Number of genes Repressed by JFH1 infection and Down-regulated by treatment: 2
  Number of genes Repressed by JFH1 infection and Up-regulated by treatment: 11
[1]
  number of the 118 HCV modulated genes down-regulated (FC≦0.5) by both compounds: 106
  number of the 118 HCV modulated genes up-regulated (FC≧2) by both compounds: 12
[1]; [4]
  genes significantly up-regulated in common with HCQ and CQ: 62 genes

## CCN(CCO)CCCC(C)Nc1ccnc2cc(Cl)ccc12 (stereo not drawn) [HCQ, 2-[[4-[(7-chloro-4-quinolinyl)amino]pentyl]ethylamino]ethanol, reference compound]
HCV genotype 1b replicon
  HCV RNA replication: inhibited HCV RNA replication in a dose dependent manner
[2]; 6 hours
  Number of genes transcriptionally modulated, Down-regulated: 5
[2]; 12 hours
  Number of genes transcriptionally modulated, Down-regulated: 30
  Number of genes transcriptionally modulated, Up-regulated: 7
[2]; 24 hours
  Number of genes transcriptionally modulated, Down-regulated: 63
  Number of genes transcriptionally modulated, Up-regulated: 23
[2]; [5]
  number of significantly repressed genes (FC≦0.5) among the 23 modulated genes: 20
  number of up-regulated genes (FC≧2) among the 23 modulated genes: 3
Huh 5-2 cells
  cell growth with respect to the untreated control: more than 81%
[3]
  replication level of HCV replicon (% NPTII), number of HCV infected cells: dose-dependent decrease
[1]; 12 h
  Number of genes modulated by both HCQ and CQ, Down-regulated: 9
  Number of genes modulated by both HCQ and CQ, Up-regulated: 38
[1]; 48 h
  Number of genes modulated by both HCQ and CQ, Down-regulated: 262
  Number of genes modulated by both HCQ and CQ, Up-regulated: 24
  Number of genes Induced by JFH1 infection and Down-regulated by treatment: 104
  Number of genes Induced by JFH1 infection and Up-regulated by treatment: 1
  Number of genes Repressed by JFH1 infection and Down-regulated by treatment: 2
  Number of genes Repressed by JFH1 infection and Up-regulated by treatment: 11
[1]
  number of the 118 HCV modulated genes down-regulated (FC≦0.5) by both compounds: 106
  number of the 118 HCV modulated genes up-regulated (FC≧2) by both compounds: 12
  expression of genes involved in the IFN signaling: None of the genes regulated by IFN were found to be modulated
[1]; [4]
  genes significantly down-modulated in common with HCQ and CQ: 271 genes
  genes significantly up-regulated in common with HCQ and CQ: 62 genes

## NC(=O)c1ncn([C@@H]2O[C@H](CO)[C@@H](O)[C@H]2O)n1 [Ribavirin, ribavirin]
NiV
  delay of death from viral disease: approximately 5 days
HeV
  effect on death from viral disease: no significant effect

## IFNα
HCV genotype 1b replicon
  HCV RNA replication: inhibited HCV RNA replication in a dose dependent manner
Replicon cells
  cell viability: not affected
[1]; [6]
  Fold Change, AMBRA1: 0.4
  Fold Change, ATF2: 0.4
  Fold Change, ATF3: 0.2
  Fold Change, ATF4: 0.5
  Fold Change, ATF7IP: 0.4
  Fold Change, ATG2A: 0.3
  Fold Change, ATG4B: 1.3
  Fold Change, ATG7: 0.9
  Fold Change, ATG12: 0.8
  Fold Change, BBC3: 0.1
  Fold Change, BCL3: 0.4
  Fold Change, BECN1: 1.4
  Fold Change, BMF: 0.2
  Fold Change, CXCL5: 1.3
  Fold Change, CYP1A1: 0.4
  Fold Change, CYR61: 0.2
  Fold Change, DAPK3: 0.3
  Fold Change, DDIT3: 0.1
  Fold Change, DDIT4: 0.3
  Fold Change, DUSP1: 0.1
  Fold Change, DUSP4: 0.2
  Fold Change, DUSP8: 0.1
  Fold Change, FOXO3: 0.5
  Fold Change, GABARAPL1: 0.4
  Fold Change, GADD45A: 0.2
  Fold Change, GADD45B: 0.1
  Fold Change, GADD45G: 0.3
  Fold Change, HRK: 0.7
  Fold Change, ICAM1: 2.0
  Fold Change, IKBKAP: 1.3
  Fold Change, JUN: 0.2
  Fold Change, MAP1LC3B: 0.4
  Fold Change, MYC: 0.3
  Fold Change, NFKB1: 0.8
  Fold Change, NFKBIA: 0.3
  Fold Change, NFKBIB: 0.4
  Fold Change, NFKBIE: 0.3
  Fold Change, NFKBIL2: 1.5
  Fold Change, NKIRAS1: 0.4
  Fold Change, NKIRAS2: 1.0
  Fold Change, NKRF: 1.0
  Fold Change, PDRG1: 0.6
  Fold Change, PIK3C3: 0.5
  Fold Change, PRKAA1: 0.3
  Fold Change, RELB: 0.4
  Fold Change, SESN2: 0.2
  Fold Change, SIRT1: 0.5
  Fold Change, SQSTM1: 0.5
  Fold Change, STK11: 0.9
  Fold Change, TANK: 1.2
  Fold Change, TNFRSF10B: 0.6
  Fold Change, TRAF2: 0.7
  Fold Change, TRAF4: 0.7
  Fold Change, TSC1: 0.6
  Fold Change, TSC2: 0.9
  Fold Change, UBD: 0.8
  Fold Change, ULK1: 0.3
[1]
  expression of genes involved in the IFN signaling: significantly increased
